These results are taken from patent US20060019907A1, “Guggulsterone: an inhibitor of nuclear factor - kappaB and IkappaBalpha kinase activation and uses thereof” (Research Development Foundation, priority 2004, published 2006).

Assay [1] relates to COX-2, MMP-9, VEGF, cyclin D1, c-myc, cIAP1, xIAP, Bfl-1, BCL-2, TRAF1, cFLIP, survivin. The assay is described as follows: TNF-induced expression of NF-κB regulated gene products, Western blot. In kind it is cell-based, human. Conditions: H1299, 50 μM, 0.1 nM TNF. As to the method: Western Blot Analysis: To determine the effect of guggulsterone on TNF-dependent IκBα phosphorylation, IκBα degradation, p65 translocation and p65 phosphorylation, cytoplasmic extracts were prepared as previously described (Majumdar et al., 2001) from H1299 (2×10^6/ml) pretreated with 50 μM guggulsterone for 4 h and then exposed to 0.1 nM TNF for various times. Thirty micrograms of cytoplasmic protein was resolved on 10% SDS-PAGE gel, transferred to a nitrocellulose membrane, blocked with 5% non-fat milk, and probed with specific antibody against IκBα, posphorylated IκBα, p65 and phosphorylated p65. To determine the expression of cyclin D1, COX-2, MMP-9, clAP-1, xlAP, TRAF1, Bcl-2, Bfl-1, cFLIP, and survivin, whole-cell extracts were prepared from treated cells (2×10^6 cells in 2 ml medium), 30-50 μg protein was resolved on SDS-PAGE gel and probed by Western blot with specific antibodies as per manufacturer's recommended protocol. The blots were washed, exposed to HRP-conjugated secondary antibodies for 1 hour, and finally detected by ECL reagent (Amersham Pharmacia Biotech.). The bands were quantitated using a Personal Densitometer Scan v1.30 using IMAGEQUANT™ software version 3.3 (Molecular Dynamics).
In general terms: In western blotting, separated proteins are transferred to a membrane and probed.

Assay [2] has as its system IκBα. The assay is described as follows: RANKL-induced IκBα phosphorylation and degradation, Western blot. The class given is cell-based, mouse. Conditions: RAW 264.7. The method, then:
Western blot analysis. To determine the levels of protein expression in the cytoplasm or nucleus, extracts were prepared (Majumder and Aggarwal, 2001) and fractionated by SDS-polyacrylamide gel electrophoresis (PAGE). After electrophoresis, the proteins were electrotransferred to nitrocellulose membranes, blotted with each antibody, and detected by ECL regent (Amersham, Piscataway, N.J.). The bands obtained were quantitated using NIH imaging software (NIH, Bethesda, Md.).

Assay [3] relates to Akt. The assay is described as follows: Akt activation in U937 cells, Western blot. In kind it is cell-based, human. The settings on record: 10 μM. The method, then: Western blot analysis. Thirty to fifty micrograms of cytoplasmic, nuclear or whole cell protein was resolved on 10% SDS-PAGE gel, transferred to a nitrocellulose membrane, blocked with 5% non-fat milk, and probed with specific antibodies as per manufacturer's recommended protocol. The blots were washed, exposed to HRP-conjugated secondary antibodies for 1 h, and detected by ECL reagent (Amersham Pharmacia Biotechnology, Piscataway, N.J.). The bands were quantitated using a Personal Densitometer Scan v1.30 using Imagequant software version 3.3 (Molecular Dynamics).

In assay [4] the test system is JNK. The assay is described as follows: JNK assay in MKK4 mutants and wild type cells. In kind it is cell-based. Conditions: 10 μM. The method, then:
JNK kinase assay. To determine the effect of guggulsterone on the kinase activity of JNK, JNK complex from whole-cell extracts was precipitated with antibody against JNK1, followed by treatment with protein A/G-Sepharose beads (Pierce, Rockford, Ill.). After 2 h of incubation, the beads were washed with lysis buffer and then assayed in kinase assay mixture containing 50 mM HEPES (pH 7.4), 20 mM MgCl2, 2 mM dithiothreitol, 20 μCi of [γ-^32P]ATP, 10 μM unlabeled ATP, and 2 μg of substrate GST-c-Jun (1-79). The immunocomplex was incubated at 30° C. for 30 min and then boiled with SDS sample buffer for 5 min. Finally, the protein was resolved on 10% SDS-PAGE, the gel was dried, and the radioactive bands were visualized using the PhosphorImager. To determine the total amount of JNK1 in each sample, whole-cell extracts were subjected to Western blot analysis using anti-JNK1 antibody.

Assay [5] concerns the target farnesoid X receptor (FXR) (Homo sapiens, UniProt Q96RI1). The settings on record: cited from earlier work.
In assay [6] the test system is inducible nitric oxide synthetase (iNOS). Conditions: Meselhy et al., 2003; cited from earlier work.
The mark [7] stands for this setting: 50 μM, 4 h pre-incubation, 10 nM RANKL.

The structures appear in SMILES notation.

Chain of farnesoid X receptor (FXR) (Q96RI1 whole entry, species assumed): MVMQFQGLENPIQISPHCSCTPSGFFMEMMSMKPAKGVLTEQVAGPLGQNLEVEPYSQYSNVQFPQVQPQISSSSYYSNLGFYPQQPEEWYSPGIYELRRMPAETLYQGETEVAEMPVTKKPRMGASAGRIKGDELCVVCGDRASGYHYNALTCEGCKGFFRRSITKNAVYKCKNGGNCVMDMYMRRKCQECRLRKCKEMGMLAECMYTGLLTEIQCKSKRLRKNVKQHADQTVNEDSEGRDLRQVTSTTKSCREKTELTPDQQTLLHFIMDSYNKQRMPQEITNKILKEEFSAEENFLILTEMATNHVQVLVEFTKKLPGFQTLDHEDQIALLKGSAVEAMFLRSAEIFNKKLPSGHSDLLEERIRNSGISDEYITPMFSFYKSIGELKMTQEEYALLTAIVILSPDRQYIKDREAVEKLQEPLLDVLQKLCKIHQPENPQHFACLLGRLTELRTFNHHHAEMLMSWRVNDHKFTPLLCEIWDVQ

Take `CC=C1C(=O)C[C@H]2[C@@H]3CCC4=CC(=O)CC[C@]4(C)[C@H]3CC[C@]12C` [guggulsterone, 4,17(20)-pregnadiene-3,16-dione]: in assay [1] (4 h), the “TNF-induced COX-2, MMP-9 and VEGF expression” value is reported as “abolished the TNF-induced expression of these gene products”. In addition, in assay [1] (4 hours), the “TNF-induced cyclin D1 and c-myc expression” value was “abolished the expression of these gene products”; the “TNF-induced expression of cIAP1, xIAP, Bfl-1, BCL-2, TRAF1, cFLIP and survivin” value is recorded as “this expression was inhibited”. Further, the “phosphorylation of IκBα by GS alone” value in assay [2] is “did not result in phosphorylation of IκBα”. Besides, in assay [2] (setting [7]), the “RANKL-induced IκBα degradation” value was “suppressed RANKL-induced IκBα degradation” and the “RANKL-induced phosphorylation of IκBα” value is on record as “eliminated the RANKL-induced phosphorylation”. For the same compound, the “expression of IκBα (IκBα to β-actin ratio)” value in assay [2] (GS treatment) is reported as “down-regulates the expression of IκBα”. For the same compound, the Akt activation result in assay [3] is listed as “suppression of Akt-activation”. Moreover, the “guggulsterone induced JNK activation, dependence on MKK4” value in assay [4] is listed as “MKK4 is required for guggulsterone induced JNK activation”. In addition, in assay [5] (Urizar et al., 2002, Wu et al.), the “action on bile acid receptor farnesoid X receptor (FXR)” value is on record as “antagonist”. For the same compound, the “expression of bile acid-activated genes” value in assay [5] (Urizar et al., 2002, Cui et al., 2003) was “decrease the expression of bile acid-activated genes”. Also, the “iNOS expression induced by LPS in macrophages” value in assay [6] is “inhibiting inducible nitric oxide synthetase (iNOS) expression”.
